Tests used:
human orexin 2 receptor = human orexin 2 receptor (Homo sapiens (Human), UniProt O43614); assay: Human orexin 2 receptor radioligand binding ([3H]-EMPA competition); details: HEK293 stably expressing human orexin 2 receptor; 2 nM [3H]-EMPA; averages of 2-20 runs; read-out: hOX2 Ki
In short: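 Membranes-free whole HEK293 cells stably expressing human OX2 receptor incubated with [3H]-EMPA and compound (7 concentrations, 0.1 nM–10 μM, ≤0.1% DMSO) for 60 min at room temperature; nonspecific binding with 10 μM almorexant. Filtration and scintillation counting; one-site IC50 converted to Ki using predetermined Kd, triplicates averaged over 2-20 runs.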

rat orexin 1 receptor = rat orexin 1 receptor (Rattus norvegicus, UniProt P56718); assay: Rat orexin 1 receptor radioligand binding (competitive); details: HEK293 cells stably expressing rat orexin 1 receptor; 4 nM radioligand; averages of 2-20 runs; read-out: rOX1 Ki
In short: (§1)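 Competition binding used HEK293 cells expressing rat OX1 or CHO cells expressing human OX1, with 4 nM final [3H]-labelled thiazolyl-oxadiazolyl-pyrrolidinyl methanone radioligand in PBS. Compounds were tested at 7 concentrations (0.1 nM–10 μM) for 60 min at room temperature, then filtered; 10 μM almorexant defined nonspecific binding. Ki was derived from the one-site IC50 and the radioligand Kd.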

human orexin 1 receptor = human orexin 1 receptor (Homo sapiens (Human), UniProt O43613); assay: Human orexin 1 receptor radioligand binding (competitive); details: CHO cells stably expressing human orexin 1 receptor; 4 nM radioligand; averages of 2-20 runs; read-out: hOX1 Ki
In short: as §1

human orexin 2 receptor, sequence (O43614 whole entry): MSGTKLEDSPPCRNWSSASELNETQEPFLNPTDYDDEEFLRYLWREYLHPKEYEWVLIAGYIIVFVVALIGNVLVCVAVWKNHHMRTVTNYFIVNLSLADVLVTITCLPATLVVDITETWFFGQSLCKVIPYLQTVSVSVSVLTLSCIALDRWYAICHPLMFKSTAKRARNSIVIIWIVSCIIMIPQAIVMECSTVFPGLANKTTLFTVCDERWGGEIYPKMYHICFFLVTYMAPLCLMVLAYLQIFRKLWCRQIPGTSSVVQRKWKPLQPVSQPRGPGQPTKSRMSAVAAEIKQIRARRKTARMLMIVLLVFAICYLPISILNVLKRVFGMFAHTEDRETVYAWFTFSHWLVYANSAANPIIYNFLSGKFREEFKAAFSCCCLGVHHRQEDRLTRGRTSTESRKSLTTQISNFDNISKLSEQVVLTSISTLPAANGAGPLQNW
human orexin 1 receptor, sequence (O43613 whole entry): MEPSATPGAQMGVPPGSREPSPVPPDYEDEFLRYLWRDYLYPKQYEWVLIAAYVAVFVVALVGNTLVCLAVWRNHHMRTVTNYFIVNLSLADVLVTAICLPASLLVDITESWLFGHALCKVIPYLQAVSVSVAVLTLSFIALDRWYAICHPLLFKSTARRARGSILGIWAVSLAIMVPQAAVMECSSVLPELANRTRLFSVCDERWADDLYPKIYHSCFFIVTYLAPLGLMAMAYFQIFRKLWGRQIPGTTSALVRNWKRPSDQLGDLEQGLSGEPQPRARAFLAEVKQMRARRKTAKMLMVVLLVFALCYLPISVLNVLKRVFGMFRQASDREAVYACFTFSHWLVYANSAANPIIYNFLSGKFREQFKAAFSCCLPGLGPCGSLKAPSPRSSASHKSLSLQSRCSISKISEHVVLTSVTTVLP

SMILES | Ki (human orexin 2 receptor) | Ki (rat orexin 1 receptor) | Ki (human orexin 1 receptor)
O=C(c1cc(F)ccc1-c1ncc(F)cn1)N1[C@H](CF)[C@@H]2CC[C@H]1[C@H](Oc1ccc(C(F)(F)F)cn1)C2 [Example 80, (5-fluoro-2-(5-fluoropyrimidin-2-yl)phenyl)((1S,3S,4R,6R)-3-(fluoromethyl)-6-((5-(trifluoromethyl)pyridin-2-yl)oxy)-2-azabicyclo[2.2.2]octan-2-yl)methanone] | 4170 nM | 43 nM | 35 nM
Cc1ccc(-n2nccn2)c(C(=O)N2[C@H](C)[C@H]3C[C@@H](Oc4ccc(C(F)F)cn4)[C@@H]2C3)n1 [Example 110, [(1R,2R,4S,5R)-5-[[5-(difluoromethyl)-2-pyridyl]oxy]-2-methyl-3-azabicyclo[2.2.1]heptan-3-yl]-[6-methyl-3-(triazol-2-yl)-2-pyridyl]methanone] | 146 nM | 7 nM | 5 nM
C[C@@H]1[C@@H]2CC[C@@H]([C@H](Oc3ccc(C(F)(F)F)cn3)C2)N1C(=O)c1cccc(F)c1-c1ncccn1 [Example 148, (3-fluoro-2-pyrimidin-2-yl-phenyl)-[(1R,2R,4S,5R)-2-methyl-5-[[5-(trifluoromethyl)-2-pyridyl]oxy]-3-azabicyclo[2.2.2]octan-3-yl]methanone] | 2400 nM | 12 nM | 14 nM
Cc1ccc(-n2nccn2)c(C(=O)N2[C@H](C)[C@@H]3CC[C@H]2[C@H](Oc2ccc(C(F)(F)F)cn2)C3)n1 [Example 156, [6-methyl-3-(triazol-2-yl)-2-pyridyl]-[(1R,2R,4S,5R)-2-methyl-5-[[5-(trifluoromethyl)-2-pyridyl]oxy]-3-azabicyclo[2.2.2]octan-3-yl]methanone] | 1100 nM | 6 nM | 10 nM
C[C@@H]1[C@@H]2CC[C@@H]([C@H](Oc3ccc(C(F)(F)F)cn3)C2)N1C(=O)c1ccccc1-n1nccn1 [Example 157, [(1R,2R,4S,5R)-2-methyl-5-[[5-(trifluoromethyl)-2-pyridyl]oxy]-3-azabicyclo[2.2.2]octan-3-yl]-[2-(triazol-2-yl)phenyl]methanone] | 6000 nM | 29 nM | 129 nM
Cc1ccc(-c2ncccn2)c(C(=O)N2[C@H](C)[C@@H]3CC[C@H]2[C@H](Oc2ccc(C(F)(F)F)cn2)C3)n1 [Example 158, (6-methyl-3-pyrimidin-2-yl-2-pyridyl)-[(1R,2R,4S,5R)-2-methyl-5-[[5-(trifluoromethyl)-2-pyridyl]oxy]-3-azabicyclo[2.2.2]octan-3-yl]methanone] | 2700 nM | 35 nM | 138 nM
C[C@@H]1[C@@H]2CC[C@@H]([C@H](Oc3ccc(C(F)(F)F)cn3)C2)N1C(=O)c1ncccc1-n1nccn1 [Example 159, [(1R,2R,4S,5R)-2-methyl-5-[[5-(trifluoromethyl)-2-pyridyl]oxy]-3-azabicyclo[2.2.2]octan-3-yl]-[3-(triazol-2-yl)-2-pyridyl]methanone] | 2800 nM | 14 nM | 41 nM
Cc1cnc(C(=O)N2[C@H](C)[C@@H]3CC[C@H]2[C@H](Oc2ccc(C(F)(F)F)cn2)C3)c(-n2nccn2)c1 [Example 160, [5-methyl-3-(triazol-2-yl)-2-pyridyl]-[(1R,2R,4S,5R)-2-methyl-5-[[5-(trifluoromethyl)-2-pyridyl]oxy]-3-azabicyclo[2.2.2]octan-3-yl]methanone] | 872 nM | 8 nM | 11 nM
Cc1cnc(C(=O)N2[C@H](C)[C@@H]3CC[C@H]2[C@H](Oc2ccc(C(F)(F)F)cn2)C3)c(-c2ncccn2)c1 [Example 161, (5-methyl-3-pyrimidin-2-yl-2-pyridyl)-[(1R,2R,4S,5R)-2-methyl-5-[[5-(trifluoromethyl)-2-pyridyl]oxy]-3-azabicyclo[2.2.2]octan-3-yl]methanone] | 5000 nM | 4 nM | 8 nM
C[C@@H]1[C@@H]2CC[C@@H]([C@@H](Oc3ccc(C(F)(F)F)cn3)C2)N1C(=O)c1cccc(F)c1-c1ncccn1 [Example 162, (3-fluoro-2-pyrimidin-2-yl-phenyl)-[(1R,2R,4S,5S)-2-methyl-5-[[5-(trifluoromethyl)-2-pyridyl]oxy]-3-azabicyclo[2.2.2]octan-3-yl]methanone] | > 10000 nM | 236 nM | 106 nM
C[C@@H]1[C@H]2C[C@@H](Oc3ccc(C(F)(F)F)cn3)[C@H](C2)N1C(=O)c1ccccc1-n1ncc(CCCF)n1 [Example 168, [2-[4-(3-fluoropropyl)triazol-2-yl]phenyl]-[(1R,2R,4S,5R)-2-methyl-5-[[5-(trifluoromethyl)-2-pyridyl]oxy]-3-azabicyclo[2.2.1]heptan-3-yl]methanone] | 1380 nM | 14 nM | 20 nM
C[C@@H]1[C@H]2C[C@@H](Oc3ccc(C(F)(F)F)cn3)[C@H](C2)N1C(=O)c1ccccc1-c1ccc(F)nc1 [Example 171, [2-(6-fluoro-3-pyridyl)phenyl]-[(1R,2R,4S,5R)-2-methyl-5-[[5-(trifluoromethyl)-2-pyridyl]oxy]-3-azabicyclo[2.2.1]heptan-3-yl]methanone] | 1600 nM | 23 nM | 17 nM
C[C@@H]1[C@H]2C[C@@H](Oc3ccc(C(F)(F)F)cn3)[C@H](C2)N1C(=O)c1ccccc1-c1ccnc(F)c1 [Example 172, [2-(2-fluoro-4-pyridyl)phenyl]-[(1R,2R,4S,5R)-2-methyl-5-[[5-(trifluoromethyl)-2-pyridyl]oxy]-3-azabicyclo[2.2.1]heptan-3-yl]methanone] | > 10000 nM | 66 nM | 67 nM
C[C@@H]1[C@H]2C[C@@H](Oc3ccc(C(F)(F)F)cn3)[C@H](C2)N1C(=O)c1ccccc1-c1cccc([N+](=O)[O-])n1 [Example 174, [(1R,2R,4S,5R)-2-methyl-5-[[5-(trifluoromethyl)-2-pyridyl]oxy]-3-azabicyclo[2.2.1]heptan-3-yl]-[2-(6-nitro-2-pyridyl)phenyl]methanone] | 3940 nM | 8 nM | 9 nM
C[C@@H]1[C@H]2C[C@@H](Oc3ccc(C(F)(F)F)cn3)[C@H](C2)N1C(=O)c1ccccc1-c1cccc(Br)n1 [Example 175, [2-(6-bromo-2-pyridyl)phenyl]-[(1R,2R,4S,5R)-2-methyl-5-[[5-(trifluoromethyl)-2-pyridyl]oxy]-3-azabicyclo[2.2.1]heptan-3-yl]methanone] | 837 nM | 13 nM | 15 nM
Cc1ccc(-n2nccn2)c(C(=O)N2[C@H](CO)[C@@H]3CC[C@H]2[C@H](Oc2ccc(C(F)(F)F)cn2)C3)n1 [Example 176, [(1R,2S,4S,5R)-2-(hydroxymethyl)-5-[[5-(trifluoromethyl)-2-pyridyl]oxy]-3-azabicyclo[2.2.2]octan-3-yl]-[6-methyl-3-(triazol-2-yl)-2-pyridyl]methanone] | 8100 nM | 33 nM | 35 nM
Cc1ccc(C(=O)N2[C@H](C)[C@H]3C[C@@H](Oc4ccc(Cl)cn4)[C@@H]2C3)c(-n2nccn2)n1 [Example 193, [(1R,2R,4S,5R)-5-[(5-chloro-2-pyridyl)oxy]-2-methyl-3-azabicyclo[2.2.1]heptan-3-yl]-[6-methyl-2-(triazol-2-yl)-3-pyridyl]methanone] | 4700 nM | 8 nM | 8 nM
Cc1cnc(-n2nccn2)c(C(=O)N2[C@H](C)[C@H]3C[C@@H](Oc4ccc(Cl)cn4)[C@@H]2C3)c1 [Example 194, [(1R,2R,4S,5R)-5-[(5-chloro-2-pyridyl)oxy]-2-methyl-3-azabicyclo[2.2.1]heptan-3-yl]-[5-methyl-2-(triazol-2-yl)-3-pyridyl]methanone] | 2900 nM | 5 nM | 5 nM
[2H]C1([2H])[C@H]2C[C@@H]([C@@H]1Oc1ccc(Cl)cn1)N(C(=O)c1cccc(F)c1-n1nccn1)[C@@H]2C [Example 197, [(1R,3R,4S,6R)-3-[(5-chloro-2-pyridyl)oxy]-2,2-dideuterio-6-methyl-5-azabicyclo[2.2.1]heptan-5-yl]-[3-fluoro-2-(triazol-2-yl)phenyl]methanone] | 481 nM | 4 nM | 3 nM
[2H]C1([2H])[C@H]2C[C@@H]([C@@H]1Oc1ccc(C(F)(F)F)cn1)N(C(=O)c1cccc(F)c1-n1nccn1)[C@@H]2C [Example 199, [(1R,3R,4S,6R)-2,2-dideuterio-6-methyl-3-[[5-(trifluoromethyl)-2-pyridyl]oxy]-5-azabicyclo[2.2.1]heptan-5-yl]-[3-fluoro-2-(triazol-2-yl)phenyl]methanone] | 556 nM | 5 nM | 5 nM
